According to patent US8003797B2, “Pyridine carboxamide orexin receptor antagonists” (Merck Sharp & Dohme Corp., priority 2007, dated 2011):
pKi: −log10 of the molar value.

biological target: T1, OX2R (Homo sapiens, UniProt O43614); assay: radioligand binding assay, OX2 receptor; conditions: membranes prepared from CHO cells expressing the OX2 receptor
T1 construct: expressed in transfected cells; host or cells: CHO cells (membranes)
T1 sequence (O43614 1-444): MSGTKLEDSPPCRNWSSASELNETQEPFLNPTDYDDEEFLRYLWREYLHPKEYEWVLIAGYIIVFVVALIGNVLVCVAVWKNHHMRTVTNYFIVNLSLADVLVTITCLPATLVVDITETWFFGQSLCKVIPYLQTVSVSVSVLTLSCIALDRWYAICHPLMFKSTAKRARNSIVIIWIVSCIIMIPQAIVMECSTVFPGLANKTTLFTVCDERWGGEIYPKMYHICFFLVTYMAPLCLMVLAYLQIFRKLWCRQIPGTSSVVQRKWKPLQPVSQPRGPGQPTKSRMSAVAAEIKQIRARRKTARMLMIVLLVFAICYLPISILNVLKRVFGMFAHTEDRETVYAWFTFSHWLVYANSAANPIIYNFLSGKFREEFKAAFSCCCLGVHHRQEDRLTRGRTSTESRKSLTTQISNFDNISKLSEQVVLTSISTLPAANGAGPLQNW
Procedure: In a typical experiment the OX1 and OX2 receptor antagonistic activity of the compounds of the present invention was determined in accordance with the following experimental method. For intracellular calcium measurements, Chinese hamster ovary (CHO) cells expressing the rat orexin-1 receptor or the human orexin-2 receptor, are grown in Iscove's modified DMEM containing 2 mM L-glutamine, […], 1% hypoxanthine-thymidine supplement, 100 U/ml penicillin, 100 ug/ml streptomycin and 10% heat-inactivated fetal calf serum (FCS). The cells are seeded at 20,000 cells/well into Becton-Dickinson black 384-well clear bottom sterile plates coated with poly-D-lysine. All reagents were from GIBCO-Invitrogen Corp. The seeded plates are incubated overnight at 37° C. and 5% CO2. Ala-6,12 human orexin-A as the agonist is prepared as a 1 mM stock solution in 1% bovine serum albumin (BSA) and diluted in assay buffer (HBSS containing 20 mM HEPES, 0.1% BSA and 2.5 mM probenecid, pH7.4) for use in the assay at a final concentration of 70 pM. Test compounds are prepared as 10 mM stock solution in DMSO, then diluted in 384-well plates, first in DMSO, then assay buffer. On the day of the assay, cells are washed 3 times with 100 ul assay buffer and then incubated for 60 min (37° C., 5% CO2) in 60 ul assay buffer containing 1 uM Fluo-4AM ester, 0.02% pluronic acid, and 1% BSA. The dye loading solution is then aspirated and cells are washed 3 times with 100 ul assay buffer. 30 ul of that same buffer is left in each well. Within the Fluorescent Imaging Plate Reader (FLIPR, Molecular Devices), test compounds are added to the plate in a volume of 25 ul, incubated for 5 min and finally 25 ul of agonist is added. Fluorescence is measured for each well at 1 second intervals for 5 minutes and the height of each fluorescence peak is compared to the height of the fluorescence peak induced by 70 pM Ala-6,12 orexin-A with buffer in place of antagonist. For each antagonist, IC50 value (the concentration of compound needed to inhibit 50% of the agonist response) is determined. Alternatively, compound potency can be assessed by a radioligand binding assay (described in Bergman et. al. Bioorg. Med. Chem. Lett. 2008, 18, 1425-1430) in which the inhibition constant (Ki) is determined in membranes prepared from CHO cells expressing either the OX1 or OX2 receptor. The intrinsic orexin receptor antagonist activity of a compound which may be used in the present invention may be determined by these assays.

Molecule	pKi
5-(3,5-chloromethylphenyl)-N-[(1,4-dimethyl-1,2,3,4-tetrahydroquinoxalin-6-yl)methyl]-2-(1-methyl-1H-pyrazol-4-yl)nicotinamide [2-14]	9.82
COc1cc(CNC(=O)c2cc(-c3cc(C)cc(C)c3)cnc2-c2cnn(C)c2)cnc1OC [1-13, N-[(5,6-dimethoxypyridin-3-yl)methyl]-5-(3,5-dimethylphenyl)-2-(1-methyl-1H-pyrazol-4-yl)nicotinamide]	8.32
Cc1[nH]c2cc(CNC(=O)c3cc(-c4cc(Cl)cc(Cl)c4)cnc3-c3cnn(C)c3)ccc2c1C [1-14, 5-(3,5-dichlorophenyl)-N-[(2,3-dimethyl-1H-indol-6-yl)methyl]-2-(1-methyl-1H-pyrazol-4-yl)nicotinamide]	10.15
COc1ccc(CNC(=O)c2cc(-c3cncc(C)c3)cnc2-c2cccc(F)c2)nc1OC [3-7, N-[(5,6-dimethoxypyridin-2-yl)methyl]-6-(3-fluorophenyl)-5′-methyl-3,3′-bipyridine-5-carboxamide]	9.49
COc1ccc(CNC(=O)c2cc(-c3cncc(Cl)c3)cnc2-c2ccccc2)nc1OC [3-15, 5′-chloro-N-[(5,6-dimethoxypyridin-2-yl)methyl]-6-phenyl-3,3′-bipyridine-5-carboxamide]	9.35
COc1ccc(CNC(=O)c2cc(-c3cc(C)cc(Cl)c3)cnc2N2CCCC2)cc1OC [4-5, 5-(3-chloro-5-methylphenyl)-N-(3,4-dimethoxybenzyl)-2-pyrrolidin-1-ylnicotinamide]	9.35
COc1ccc(CNC(=O)c2cc(-c3cncc(C)c3)cnc2N2CCOCC2)nc1OC [4-13, N-[(5,6-dimethoxypyridin-2-yl)methyl]-5′-methyl-6-morpholin-4-yl-3,3′-bipyridine-5-carboxamide]	8.96
COc1ccc(CNC(=O)c2cc(-c3cncc(C)c3)cnc2-n2ccc(C)n2)cc1Cl [5-11, N-(3-chloro-4-methoxybenzyl)-5′-methyl-6-(3-methyl-1H-pyrazol-1-yl)-3,3′-bipyridine-5-carboxamide]	9.02
COc1ccc(CNC(=O)c2cc(-c3cncc(C)c3)cnc2C2CCCC2)cc1OC [6-5, 6-cyclopentyl-N-(3,4-dimethoxybenzyl)-5-methyl-3,3′-bipyridine-5-carboxamide]	8.64
